From US10065990B2, “Cyclic peptide compound, and preparation method, pharmaceutical composition and use thereof” (HANGZHOU GUANYU BIO-MEDICAL CO., LTD, priority 2013, dated 2018)
Where two headings read alike, the source gives them in different places.

Assays:
[1] = test system: Huh-7 (human hepatoma cells); test: MTT cancer cell growth inhibition; assay type: cell-based; details: Homo sapiens, Huh-7, 72 h, MTT, 72 hours incubation, Huh-7 cells; read-out: GI50 Huh-7
Method in brief: (§1)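 Following overnight attachment of 1500 cells per well, each line was exposed to test drug (final 10^−5 to 10^−10 M) for 72 h in a humidified 37° C., 5% CO2 incubator. Four hours with MTT, DMSO dissolution of formazan, and a 570 nm reading yielded viability data used for GI50.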

[2] = test system: K562 (human leukemia cells); test: MTT cancer cell growth inhibition; assay type: cell-based; details: Homo sapiens, K562, 72 h, MTT, 72 hours incubation, K562 cells; read-out: GI50 K562
Method in brief: as §1

[3] = test system: MDA-MB-231 (breast cancer cells); test: MTT cancer cell growth inhibition; assay type: cell-based; details: Homo sapiens, MDA-MB-231, 72 h, read-out: GI50 MDA-MB-231, MTT, 72 hours incubation, MDA-MB-231 cells
Method in brief: as §1

[4] = test system: HCC827 (human non-small cell lung cancer cells); test: MTT cancer cell growth inhibition; assay type: cell-based; details: Homo sapiens, HCC827, 72 h, MTT, 72 hours incubation, HCC827 cells; read-out: GI50 HCC827
Method in brief: as §1

[5] = test system: DU145 (human prostate cancer cells); test: MTT cancer cell growth inhibition; assay type: cell-based; details: Homo sapiens, DU-145, 72 h, MTT, 72 hours incubation, read-out: GI50 Du1
Method in brief: as §1

[6] = test system: H1975 (non-small cell lung adenocarcinoma); test: MTT cancer cell growth inhibition; assay type: cell-based; details: Homo sapiens, NCI-H1975, 72 h, MTT, 72 hours incubation, H1975 cells; read-out: GI50 H1975
Method in brief: as §1

[7] = test system: MCF-7 (human breast cancer cells); test: MTT cancer cell growth inhibition; assay type: cell-based; details: Homo sapiens, MCF7, 72 h, 72 hours incubation, read-out: GI50 MCF
Method in brief: as §1

[8] = test system: KBM-5 (human chronic myelogenous leukemia); test: MTT cancer cell growth inhibition; assay type: cell-based; details: Homo sapiens, KBM5, 72 h, MTT, 72 hours incubation, KBM-5 cells; read-out: GI50 KBM-5
Method in brief: as §1

[9] = test system: HT1080 (human fibrosarcoma cells); test: MTT cancer cell growth inhibition; assay type: cell-based; details: Homo sapiens, HT-1080, 72 h, MTT, 72 hours incubation, read-out: GI50 HT1
Method in brief: as §1

[10] = test system: Bel-7402 (human hepatoma cells); test: MTT cancer cell growth inhibition; assay type: cell-based; details: Homo sapiens, Bel-7402, 72 h, MTT, 72 hours incubation, Bel-7402 cells; read-out: GI50 Bel-7402
Method in brief: as §1

[11] = test system: BGC-823 (human gastric cancer cells); test: MTT cancer cell growth inhibition; assay type: cell-based; details: Homo sapiens, BGC-823, 72 h, MTT, 72 hours incubation, read-out: GI50 BG
Method in brief: as §1

[12] = test system: MOLT-4 (human acute lymphoblastic leukemia cells); test: MTT cancer cell growth inhibition; assay type: cell-based; details: Homo sapiens, MOLT-4, 72 h, MTT, 72 hours incubation, read-out: GI50 Mol
Method in brief: as §1

[13] = test system: PANC-1 (Pac-1, human pancreatic cancer cells); test: MTT cancer cell growth inhibition; assay type: cell-based; details: Homo sapiens, PANC-1, 72 h, MTT, 72 hours incubation, read-out: GI50 PAN
Method in brief: as §1

[14] = test system: U937 (human leukemia cells); test: MTT cancer cell growth inhibition; assay type: cell-based; details: Homo sapiens, U-937, 72 h, MTT, 72 hours incubation, read-out: GI50 U93
Method in brief: as §1

[15] = test system: A549 (human lung cancer cells); test: MTT cancer cell growth inhibition; assay type: cell-based; details: Homo sapiens, A549, 72 h, MTT, 72 hours incubation, read-out: GI50 A54
Method in brief: as §1

[16] = test system: SGC-7901 (human gastric cancer cells); test: MTT cancer cell growth inhibition; assay type: cell-based; details: Homo sapiens, SGC-7901, 72 h, MTT, 72 hours incubation, SGC-7901 cells; read-out: GI50 SGC-7901
Method in brief: as §1

[17] = test system: Hela (human cervical cancer cells); test: MTT cancer cell growth inhibition; assay type: cell-based; details: Homo sapiens, HeLa, 72 h, MTT, 72 hours incubation, read-out: GI50 Hela
Method in brief: as §1

[18] = test system: N-87 (human gastric cancer cells); test: MTT cancer cell growth inhibition; assay type: cell-based; details: Homo sapiens, 72 h, MTT, 72 hours incubation, N-87 cells; read-out: GI50 N-87
Method in brief: as §1

[19] = test system: KBM5-T315I (human chronic myelogenous leukemia); test: MTT cancer cell growth inhibition; assay type: cell-based; details: Homo sapiens, 72 h, MTT, 72 hours incubation, KBM5-T315I cells; read-out: GI50 KBM5-T315I
Method in brief: as §1

[20] = test system: lncap (prostate cancer cells); test: MTT cancer cell growth inhibition; assay type: cell-based; details: Homo sapiens, LNCaP, 72 h, MTT, 72 hours incubation, read-out: GI50 lnca
Method in brief: as §1

HDAC7 = target: T1, HDAC7 (Homo sapiens, UniProt Q8WUI4); test: HDAC biochemical activity measurement (fluorescent substrate deacetylation);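 note: fluorogenic deacetylation assay using acetyl-lysine substrate at 20 µM, enzyme and compound incubated 30 min at 37 °C, then developer added, fluorescence read at 360/460 nm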; details: HDAC7; 37° C. 30 minutes
T1 sequence (Q8WUI4 1-952): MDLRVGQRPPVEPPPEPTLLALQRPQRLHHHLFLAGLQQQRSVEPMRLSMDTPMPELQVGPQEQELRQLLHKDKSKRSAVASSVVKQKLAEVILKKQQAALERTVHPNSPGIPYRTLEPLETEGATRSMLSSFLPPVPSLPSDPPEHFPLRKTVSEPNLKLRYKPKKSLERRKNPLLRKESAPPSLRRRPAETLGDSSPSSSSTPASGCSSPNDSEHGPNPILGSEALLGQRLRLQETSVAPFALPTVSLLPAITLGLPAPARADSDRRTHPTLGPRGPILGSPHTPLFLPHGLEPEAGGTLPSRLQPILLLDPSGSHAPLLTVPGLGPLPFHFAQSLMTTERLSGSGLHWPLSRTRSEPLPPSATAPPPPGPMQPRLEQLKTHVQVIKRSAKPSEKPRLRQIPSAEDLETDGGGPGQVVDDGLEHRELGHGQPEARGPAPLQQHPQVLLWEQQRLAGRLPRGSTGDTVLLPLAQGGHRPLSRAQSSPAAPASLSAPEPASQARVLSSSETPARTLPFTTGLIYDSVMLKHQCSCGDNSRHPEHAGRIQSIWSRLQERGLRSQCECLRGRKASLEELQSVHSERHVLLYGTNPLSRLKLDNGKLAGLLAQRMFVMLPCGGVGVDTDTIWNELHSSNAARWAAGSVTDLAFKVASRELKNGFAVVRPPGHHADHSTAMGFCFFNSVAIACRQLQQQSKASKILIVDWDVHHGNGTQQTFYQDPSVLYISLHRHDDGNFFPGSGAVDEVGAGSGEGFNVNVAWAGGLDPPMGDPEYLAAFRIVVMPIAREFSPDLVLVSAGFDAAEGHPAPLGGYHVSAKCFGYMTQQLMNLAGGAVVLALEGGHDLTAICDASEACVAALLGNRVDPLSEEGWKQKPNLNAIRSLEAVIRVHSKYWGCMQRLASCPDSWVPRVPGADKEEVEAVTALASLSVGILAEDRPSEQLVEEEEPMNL

GI50 [1] [nM] | GI50 [2] [nM] | GI50 [3] [nM] | GI50 [4] [nM] | GI50 ([5]; DU145 cells) [nM] | GI50 [6] [nM] | GI50 ([7]; MCF-7 cells) [nM] | GI50 [8] [nM] | GI50 ([9]; HT1080 cells) [nM] | GI50 [10] [nM] | GI50 ([11]; BGC-823 cells) [nM] | GI50 ([12]; MOLT-4 cells) [nM] | GI50 ([13]; PANC-1 cells) [nM] | GI50 ([14]; U937 cells) [nM] | GI50 ([15]; A549 cells) [nM] | GI50 [16] [nM] | GI50 ([17]; Hela cells) [nM] | GI50 [18] [nM] | GI50 [19] [nM] | IC50 HDAC7 (HDAC7) | SMILES | further results
42 | 42 | 17 | 16 | 40 | 71 | 40 | 28 | 40 | 36 | 90 | 50 | 40 | 50 | 30 | 81 | 50 | 49 | 26 | no activity | C/C=C1\NC(=O)c2cc(SC)cc(n2)CNC(=O)C[C@@H](/C=C/CCSC(=O)CCC)OC(=O)[C@H](C(C)C)NC1=O [Compound 160] | GI50 ([20]; lncap cells): 50 nM
35 | 31 | 63 | 43 | 80 | 18 | 20 | 17 | 80 | 23 | 50 | 10 | 50 | 20 | 30 | 45 | 30 | 65 | 33 | no activity | C/C=C1\NC(=O)c2nc(ccc2SC)CNC(=O)C[C@@H](/C=C/CCSC(=O)CCCC)OC(=O)[C@H](C(C)C)NC1=O [Compound 156] | GI50 ([20]; lncap cells): 30 nM
29 | 23 | 26 | 37 | 70 | 35 | 20 | 36 | 90 | 83 | 30 | 20 | 20 | 20 | 20 | 72 | 70 | 36 | 23 | no activity | C/C=C1\NC(=O)c2cc(SC)cc(n2)CNC(=O)C[C@@H](/C=C/CCSC(=O)CCCC)OC(=O)[C@H](C(C)C)NC1=O [Compound 157] | GI50 ([20]; lncap cells): 50 nM
16 | 76 | 51 | 35 | – | 28 | – | 57 | – | 72 | – | – | – | – | – | 42 | – | 45 | 15 | no activity | C/C=C1\NC(=O)c2nc(ccc2F)CNC(=O)C[C@@H](/C=C/CCS)OC(=O)[C@H](Cc2cccc3ccccc23)NC1=O [Compound 124] | GI50 [5]: 20 nM; GI50 [7]: 30 nM; GI50 [9]: 30 nM; GI50 [11]: 30 nM; GI50 [12]: 50 nM; GI50 [13]: 690 nM; GI50 [14]: 100 nM; GI50 [15]: 50 nM; GI50 [17]: 30 nM; GI50 [20]: 70 nM
45 | 81 | 91 | 79 | 50 | 38 | 30 | 26 | 30 | 54 | 20 | 20 | 30 | 50 | 90 | 14 | 60 | 42 | 43 | no activity | C/C=C1\NC(=O)c2nc(ccc2SC)CNC(=O)C[C@@H](/C=C/CCSC(C)=O)OC(=O)[C@H](CCCCNC(=O)OCC2c3ccccc3-c3ccccc32)NC1=O [Compound 195] | GI50 ([20]; lncap cells): 90 nM
47 | 79 | 45 | 57 | 50 | 31 | 110 | 99 | 20 | 63 | 70 | 20 | 30 | 50 | 50 | 16 | 30 | 38 | 43 | no activity | C/C=C1\NC(=O)c2nc(ccc2SC)CNC(=O)C[C@@H](/C=C/CCSC(C)=O)OC(=O)[C@H](Cc2cccc3ccccc23)NC1=O [Compound 198] | GI50 ([20]; lncap cells): 90 nM
